Test results reported in patent US9340590B2 (priority 2011, dated 2016).
Read-outs that look alike come from different tables or passages of the source. Positions of bridges follow the written chain, without caps; N, C: chain ends. Non-standard residues stand in square brackets, D forms with d. Residues, ends and D or L forms follow the SMILES beside them. Phe(4-COOH) = N[C@@H](Cc1ccc(C(=O)O)cc1)C(=O)O; Arg(Me2s) = CN=C(NC)NCCC[C@H](N)C(=O)O; 2Pal = N[C@@H](Cc1ccccn1)C(=O)O

Experiments:
Experiment in all cases: cell-based
hNav1.7 = hNav1.7 (Homo sapiens, UniProt Q15858); format: cell-based; conditions: read-out: IWQ Use Nav1.7
Chain of hNav1.7 (Q15858 whole entry, looked up): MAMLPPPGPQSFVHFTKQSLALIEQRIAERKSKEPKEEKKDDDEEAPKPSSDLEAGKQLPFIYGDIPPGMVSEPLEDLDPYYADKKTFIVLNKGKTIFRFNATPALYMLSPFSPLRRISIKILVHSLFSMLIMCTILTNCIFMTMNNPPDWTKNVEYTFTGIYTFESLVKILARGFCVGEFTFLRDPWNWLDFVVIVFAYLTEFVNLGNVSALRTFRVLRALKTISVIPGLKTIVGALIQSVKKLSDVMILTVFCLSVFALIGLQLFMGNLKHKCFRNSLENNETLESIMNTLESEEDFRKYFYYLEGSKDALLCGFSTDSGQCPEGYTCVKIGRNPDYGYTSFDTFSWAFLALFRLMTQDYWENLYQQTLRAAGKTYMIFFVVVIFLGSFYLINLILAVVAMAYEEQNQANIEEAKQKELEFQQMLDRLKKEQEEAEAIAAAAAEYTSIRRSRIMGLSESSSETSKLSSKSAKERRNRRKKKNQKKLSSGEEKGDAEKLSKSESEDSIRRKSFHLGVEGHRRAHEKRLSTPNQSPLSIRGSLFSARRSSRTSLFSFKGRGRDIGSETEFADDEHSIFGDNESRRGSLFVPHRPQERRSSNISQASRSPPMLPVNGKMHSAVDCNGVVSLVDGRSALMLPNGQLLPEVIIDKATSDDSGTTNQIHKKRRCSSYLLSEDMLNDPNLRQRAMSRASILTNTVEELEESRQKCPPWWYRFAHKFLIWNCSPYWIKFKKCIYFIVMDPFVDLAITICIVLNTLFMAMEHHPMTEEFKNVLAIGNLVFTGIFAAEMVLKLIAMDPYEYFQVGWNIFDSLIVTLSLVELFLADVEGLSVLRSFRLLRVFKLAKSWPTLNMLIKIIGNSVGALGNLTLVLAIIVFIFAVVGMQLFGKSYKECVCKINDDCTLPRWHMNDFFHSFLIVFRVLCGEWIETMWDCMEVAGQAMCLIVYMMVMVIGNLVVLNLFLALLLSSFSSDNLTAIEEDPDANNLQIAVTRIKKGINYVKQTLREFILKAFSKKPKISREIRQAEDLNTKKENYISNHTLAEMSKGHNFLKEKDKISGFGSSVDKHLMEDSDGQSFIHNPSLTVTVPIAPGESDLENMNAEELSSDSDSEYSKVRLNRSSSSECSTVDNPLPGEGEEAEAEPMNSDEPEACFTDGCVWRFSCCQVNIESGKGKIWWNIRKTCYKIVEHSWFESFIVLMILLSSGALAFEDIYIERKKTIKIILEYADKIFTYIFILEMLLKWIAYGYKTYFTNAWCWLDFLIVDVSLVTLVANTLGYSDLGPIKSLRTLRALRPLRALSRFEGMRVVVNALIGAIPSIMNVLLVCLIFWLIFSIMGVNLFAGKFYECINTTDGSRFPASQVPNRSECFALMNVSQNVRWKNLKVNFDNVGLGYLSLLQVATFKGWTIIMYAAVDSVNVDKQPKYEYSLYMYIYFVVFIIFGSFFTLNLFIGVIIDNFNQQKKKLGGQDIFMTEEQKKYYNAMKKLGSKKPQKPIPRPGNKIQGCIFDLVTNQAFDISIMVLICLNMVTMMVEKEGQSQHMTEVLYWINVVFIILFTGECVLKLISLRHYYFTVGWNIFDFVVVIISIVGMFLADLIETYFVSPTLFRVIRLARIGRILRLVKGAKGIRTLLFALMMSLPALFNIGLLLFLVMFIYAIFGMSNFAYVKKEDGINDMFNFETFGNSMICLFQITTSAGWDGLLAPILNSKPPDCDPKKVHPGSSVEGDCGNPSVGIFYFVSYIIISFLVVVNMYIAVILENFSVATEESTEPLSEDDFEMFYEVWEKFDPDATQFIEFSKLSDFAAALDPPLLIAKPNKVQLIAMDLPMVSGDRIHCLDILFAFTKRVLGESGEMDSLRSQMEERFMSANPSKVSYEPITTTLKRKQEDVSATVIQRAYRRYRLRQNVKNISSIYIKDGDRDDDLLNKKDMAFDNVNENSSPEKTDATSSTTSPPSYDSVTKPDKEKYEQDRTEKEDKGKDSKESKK

hNav1.5 = hNav1.5 (Homo sapiens, UniProt Q14524)
hNav1.3 = hNav1.3 (Homo sapiens, UniProt Q9NY46); conditions: IonWorks Quattro, Use; read-out: IWQ Use Nav1.3
Chain of hNav1.3 (Q9NY46 whole entry, looked up): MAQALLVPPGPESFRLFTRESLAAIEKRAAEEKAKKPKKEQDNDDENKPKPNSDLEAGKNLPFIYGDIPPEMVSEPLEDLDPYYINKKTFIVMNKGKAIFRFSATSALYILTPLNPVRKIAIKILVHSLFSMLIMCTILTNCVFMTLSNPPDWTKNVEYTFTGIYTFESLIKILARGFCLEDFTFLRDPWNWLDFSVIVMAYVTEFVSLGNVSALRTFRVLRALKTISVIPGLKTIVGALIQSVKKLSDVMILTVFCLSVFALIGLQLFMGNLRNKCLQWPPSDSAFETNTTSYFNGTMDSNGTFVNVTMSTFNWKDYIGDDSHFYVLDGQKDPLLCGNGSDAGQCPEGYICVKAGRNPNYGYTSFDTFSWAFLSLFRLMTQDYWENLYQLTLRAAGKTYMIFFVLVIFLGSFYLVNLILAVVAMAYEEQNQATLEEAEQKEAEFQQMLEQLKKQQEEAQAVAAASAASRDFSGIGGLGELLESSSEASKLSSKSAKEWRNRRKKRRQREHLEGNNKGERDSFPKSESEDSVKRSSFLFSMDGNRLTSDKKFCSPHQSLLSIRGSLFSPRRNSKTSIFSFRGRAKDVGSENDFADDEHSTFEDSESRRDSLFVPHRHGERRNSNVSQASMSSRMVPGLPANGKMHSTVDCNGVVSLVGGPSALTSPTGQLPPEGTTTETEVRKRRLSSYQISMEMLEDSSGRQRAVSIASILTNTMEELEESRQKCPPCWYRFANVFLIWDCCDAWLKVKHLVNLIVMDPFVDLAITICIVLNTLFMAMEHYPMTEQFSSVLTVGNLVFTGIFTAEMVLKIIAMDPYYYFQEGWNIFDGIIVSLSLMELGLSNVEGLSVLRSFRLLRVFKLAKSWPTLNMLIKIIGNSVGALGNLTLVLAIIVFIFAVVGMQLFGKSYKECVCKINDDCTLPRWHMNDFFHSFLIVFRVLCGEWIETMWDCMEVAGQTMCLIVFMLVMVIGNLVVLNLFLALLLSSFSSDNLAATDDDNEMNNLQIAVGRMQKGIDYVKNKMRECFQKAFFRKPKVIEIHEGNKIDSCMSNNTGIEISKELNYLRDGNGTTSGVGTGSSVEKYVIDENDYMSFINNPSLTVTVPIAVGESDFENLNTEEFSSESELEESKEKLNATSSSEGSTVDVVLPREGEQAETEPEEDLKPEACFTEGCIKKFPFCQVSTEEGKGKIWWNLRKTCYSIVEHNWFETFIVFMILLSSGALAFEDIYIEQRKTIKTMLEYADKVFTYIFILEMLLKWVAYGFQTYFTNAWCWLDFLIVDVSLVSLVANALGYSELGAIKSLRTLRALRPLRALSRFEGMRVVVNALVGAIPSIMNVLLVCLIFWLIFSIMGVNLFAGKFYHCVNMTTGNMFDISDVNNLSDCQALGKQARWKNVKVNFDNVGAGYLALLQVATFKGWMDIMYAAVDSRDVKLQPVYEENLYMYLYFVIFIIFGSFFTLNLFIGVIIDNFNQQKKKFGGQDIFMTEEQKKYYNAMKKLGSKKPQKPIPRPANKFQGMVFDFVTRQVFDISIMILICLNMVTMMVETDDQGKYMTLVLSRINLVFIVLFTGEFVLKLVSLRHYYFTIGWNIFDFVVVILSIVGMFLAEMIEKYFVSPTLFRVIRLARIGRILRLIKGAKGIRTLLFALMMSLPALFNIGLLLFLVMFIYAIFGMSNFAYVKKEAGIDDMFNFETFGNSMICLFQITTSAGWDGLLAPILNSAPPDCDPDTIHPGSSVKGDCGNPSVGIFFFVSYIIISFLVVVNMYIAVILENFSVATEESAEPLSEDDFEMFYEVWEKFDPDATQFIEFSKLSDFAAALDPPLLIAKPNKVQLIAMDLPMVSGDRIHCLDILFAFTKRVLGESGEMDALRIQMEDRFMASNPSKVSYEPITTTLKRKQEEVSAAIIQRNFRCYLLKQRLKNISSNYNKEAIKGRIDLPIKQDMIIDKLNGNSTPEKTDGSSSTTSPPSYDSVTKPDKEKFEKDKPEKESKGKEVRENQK

[1] = IonWorks Quattro, Use, read-out: IWQ Use Nav1.5

Compound	IC50 (hNav1.7; IonWorks Quattro, Use) [nM]	IC50 (hNav1.5; [1]) [µM]	IC50 (hNav1.3) [nM]	IC50 (hNav1.5; IWQ Use Nav1.5 (μM)) [µM]	IC50 (hNav1.7) [nM]
CC[C@H](C)[C@@H]1NC(=O)[C@@H]2CSSC[C@@H]3NC(=O)[C@H](C(C)C)NC(=O)[C@H](CC(C)C)NC(=O)[C@H](CC(N)=O)NC(=O)[C@@H]4CCCN4C(=O)[C@H](CCCNC(=N)N)NC(=O)[C@H](CSSC[C@H](NC(=O)[C@@H](N)CC(=O)O)C(=O)N[C@@H](CC(C)C)C(=O)NCC(=O)N[C@@H](Cc4ccccc4)C(=O)N[C@@H](CCSC)C(=O)N[C@@H](CCCNC(=N)N)C(=O)N[C@@H](CCCCN)C(=O)N2)NC(=O)[C@H](CSSC[C@@H](C(=O)N[C@@H](CCCCN)C(=O)N[C@@H](Cc2ccc(O)cc2)C(=O)N[C@H](C(=O)N[C@@H](Cc2ccccc2)C(N)=O)C(C)C)NC(=O)[C@H](Cc2c[nH]c4ccccc24)NC(=O)[C@H](CCCCN)NC(=O)[C@H](Cc2c[nH]cn2)NC(=O)[C@H]([C@@H](C)O)NC(=O)[C@H](CCCNC(=N)N)NC(=O)[C@H](CO)NC3=O)NC(=O)[C@H](CCCNC(=NC)NC)NC(=O)[C@H](CC(=O)O)NC(=O)[C@H](CC(N)=O)NC(=O)[C@H](CC(=O)O)NC(=O)[C@@H]2CCCN2C1=O [compound 312] (H-DCLGFMRKCIPDND[Arg(Me2s)]CCRPNLVCSRTHKWCKYVF-NH2; disulfide 2-17, 9-23, 16-30)	140	9.67	150	–	–
CC[C@H](C)[C@@H]1NC(=O)[C@@H]2CSSC[C@@H]3NC(=O)[C@H](C(C)C)NC(=O)[C@H](CC(C)C)NC(=O)[C@H](CC(N)=O)NC(=O)[C@@H]4CCCN4C(=O)[C@H](CCCNC(=N)N)NC(=O)[C@H](CSSC[C@H](NC(=O)[C@@H](N)CC(=O)O)C(=O)N[C@@H](CC(C)C)C(=O)NCC(=O)N[C@@H](Cc4ccccc4)C(=O)N[C@@H](CCSC)C(=O)N[C@@H](CCCNC(=N)N)C(=O)N[C@@H](CCCCN)C(=O)N2)NC(=O)[C@H](CSSC[C@@H](C(=O)N[C@@H](CCCCN)C(=O)N[C@@H](Cc2ccc(O)cc2)C(=O)N[C@H](C(=O)N[C@@H](Cc2ccccc2)C(N)=O)C(C)C)NC(=O)[C@H](Cc2c[nH]c4ccccc24)NC(=O)[C@H](CCCCN)NC(=O)[C@H](Cc2c[nH]cn2)NC(=O)[C@H]([C@@H](C)O)NC(=O)[C@H](CCCNC(=N)N)NC(=O)[C@H](CO)NC3=O)NC(=O)[C@H](CCCCN(C)C)NC(=O)[C@H](CC(=O)O)NC(=O)[C@H](CC(N)=O)NC(=O)[C@H](CC(=O)O)NC(=O)[C@@H]2CCCN2C1=O [compound 313]	190	–	130	10.1	–
CC[C@H](C)[C@@H]1NC(=O)[C@@H]2CSSC[C@@H]3NC(=O)[C@H](C(C)C)NC(=O)[C@H](CC(C)C)NC(=O)[C@H](CC(N)=O)NC(=O)[C@@H]4CCCN4C(=O)[C@H](CCCNC(=NC)NC)NC(=O)[C@H](CSSC[C@H](NC(=O)[C@@H](N)CC(=O)O)C(=O)N[C@@H](CC(C)C)C(=O)NCC(=O)N[C@@H](Cc4ccccc4)C(=O)N[C@@H](CCSC)C(=O)N[C@@H](CCCNC(=N)N)C(=O)N[C@@H](CCCCN)C(=O)N2)NC(=O)[C@H](CSSC[C@@H](C(=O)N[C@@H](CCCCN)C(=O)N[C@@H](Cc2ccc(O)cc2)C(=O)N[C@H](C(=O)N[C@@H](Cc2ccccc2)C(N)=O)C(C)C)NC(=O)[C@H](Cc2c[nH]c4ccccc24)NC(=O)[C@H](CCCCN)NC(=O)[C@H](Cc2c[nH]cn2)NC(=O)[C@H]([C@@H](C)O)NC(=O)[C@H](CCCNC(=N)N)NC(=O)[C@H](CO)NC3=O)NC(=O)[C@H](CCCCN)NC(=O)[C@H](CC(=O)O)NC(=O)[C@H](CC(N)=O)NC(=O)[C@H](CC(=O)O)NC(=O)[C@@H]2CCCN2C1=O [compound 315]	–	–	100	10.5	140
CC[C@H](C)[C@@H]1NC(=O)[C@@H]2CSSC[C@@H]3NC(=O)[C@H](C(C)C)NC(=O)[C@H](CC(C)C)NC(=O)[C@H](CC(N)=O)NC(=O)[C@@H]4CCCN4C(=O)[C@H](Cc4ccccn4)NC(=O)[C@H](CSSC[C@H](NC(=O)[C@@H](N)CC(=O)O)C(=O)N[C@@H](CC(C)C)C(=O)NCC(=O)N[C@@H](Cc4ccccc4)C(=O)N[C@@H](CCSC)C(=O)N[C@@H](CCCNC(=N)N)C(=O)N[C@@H](CCCCN)C(=O)N2)NC(=O)[C@H](CSSC[C@@H](C(=O)N[C@@H](CCCCN)C(=O)N[C@@H](Cc2ccc(O)cc2)C(=O)N[C@H](C(=O)N[C@@H](Cc2ccccc2)C(N)=O)C(C)C)NC(=O)[C@H](Cc2c[nH]c4ccccc24)NC(=O)[C@H](CCCCN)NC(=O)[C@H](Cc2cnc[nH]2)NC(=O)[C@H]([C@@H](C)O)NC(=O)[C@H](CCCNC(=N)N)NC(=O)[C@H](CO)NC3=O)NC(=O)[C@H](CCCCN)NC(=O)[C@H](CC(=O)O)NC(=O)[C@H](CC(N)=O)NC(=O)[C@H](CC(=O)O)NC(=O)[C@@H]2CCCN2C1=O [compound 316] (H-DCLGFMRKCIPDNDKCC[2Pal]PNLVCSRTHKWCKYVF-NH2; disulfide 2-17, 9-23, 16-30)	190	9.17	60	–	–
CC[C@H](C)[C@@H]1NC(=O)[C@@H]2CSSC[C@@H]3NC(=O)[C@H](C(C)C)NC(=O)[C@H](Cc4ccc(C(=O)O)cc4)NC(=O)[C@H](CC(N)=O)NC(=O)[C@@H]4CCCN4C(=O)[C@H](CCCNC(=N)N)NC(=O)[C@H](CSSC[C@H](NC(=O)[C@@H](N)CC(=O)O)C(=O)N[C@@H](CC(C)C)C(=O)NCC(=O)N[C@@H](Cc4ccccc4)C(=O)N[C@@H](CCSC)C(=O)N[C@@H](CCCNC(=N)N)C(=O)N[C@@H](CCCCN)C(=O)N2)NC(=O)[C@H](CSSC[C@@H](C(=O)N[C@@H](CCCCN)C(=O)N[C@@H](Cc2ccc(O)cc2)C(=O)N[C@H](C(=O)N[C@@H](Cc2ccccc2)C(N)=O)C(C)C)NC(=O)[C@H](Cc2c[nH]c4ccccc24)NC(=O)[C@H](CCCCN)NC(=O)[C@H](Cc2c[nH]cn2)NC(=O)[C@H]([C@@H](C)O)NC(=O)[C@H](CCCNC(=N)N)NC(=O)[C@H](CO)NC3=O)NC(=O)[C@H](CCCCN)NC(=O)[C@H](CC(=O)O)NC(=O)[C@H](CC(N)=O)NC(=O)[C@H](CC(=O)O)NC(=O)[C@@H]2CCCN2C1=O [compound 317] (H-DCLGFMRKCIPDNDKCCRPN[Phe(4-COOH)]VCSRTHKWCKYVF-NH2; disulfide 2-17, 9-23, 16-30)	3980	8.9	3670	–	–
CC[C@H](C)[C@@H]1NC(=O)[C@@H]2CSSC[C@@H]3NC(=O)[C@H](C(C)C)NC(=O)[C@H](Cc4ccccn4)NC(=O)[C@H](CC(N)=O)NC(=O)[C@@H]4CCCN4C(=O)[C@H](CCCNC(=N)N)NC(=O)[C@H](CSSC[C@H](NC(=O)[C@@H](N)CC(=O)O)C(=O)N[C@@H](CC(C)C)C(=O)NCC(=O)N[C@@H](Cc4ccccc4)C(=O)N[C@@H](CCSC)C(=O)N[C@@H](CCCNC(=N)N)C(=O)N[C@@H](CCCCN)C(=O)N2)NC(=O)[C@H](CSSC[C@@H](C(=O)N[C@@H](CCCCN)C(=O)N[C@@H](Cc2ccc(O)cc2)C(=O)N[C@H](C(=O)N[C@@H](Cc2ccccc2)C(N)=O)C(C)C)NC(=O)[C@H](Cc2c[nH]c4ccccc24)NC(=O)[C@H](CCCCN)NC(=O)[C@H](Cc2c[nH]cn2)NC(=O)[C@H]([C@@H](C)O)NC(=O)[C@H](CCCNC(=N)N)NC(=O)[C@H](CO)NC3=O)NC(=O)[C@H](CCCCN)NC(=O)[C@H](CC(=O)O)NC(=O)[C@H](CC(N)=O)NC(=O)[C@H](CC(=O)O)NC(=O)[C@@H]2CCCN2C1=O [compound 318] (H-DCLGFMRKCIPDNDKCCRPN[2Pal]VCSRTHKWCKYVF-NH2; disulfide 2-17, 9-23, 16-30)	180	7.52	80	–	–
CC[C@H](C)[C@@H]1NC(=O)[C@@H]2CSSC[C@@H]3NC(=O)[C@H](Cc4ccccc4)NC(=O)[C@H](CC(C)C)NC(=O)[C@H](CC(N)=O)NC(=O)[C@@H]4CCCN4C(=O)[C@H](CCCNC(=N)N)NC(=O)[C@H](CSSC[C@H](NC(=O)[C@@H](N)CC(=O)O)C(=O)N[C@@H](CC(C)C)C(=O)NCC(=O)N[C@@H](Cc4ccccc4)C(=O)N[C@@H](CCSC)C(=O)N[C@@H](CCCNC(=N)N)C(=O)N[C@@H](CCCCN)C(=O)N2)NC(=O)[C@H](CSSC[C@@H](C(=O)N[C@@H](CCCCN)C(=O)N[C@@H](Cc2ccc(O)cc2)C(=O)N[C@H](C(=O)N[C@@H](Cc2ccccc2)C(N)=O)C(C)C)NC(=O)[C@H](Cc2c[nH]c4ccccc24)NC(=O)[C@H](CCCCN)NC(=O)[C@H](Cc2c[nH]cn2)NC(=O)[C@H]([C@@H](C)O)NC(=O)[C@H](CCCNC(=N)N)NC(=O)[C@H](CO)NC3=O)NC(=O)[C@H](CCCCN)NC(=O)[C@H](CC(=O)O)NC(=O)[C@H](CC(N)=O)NC(=O)[C@H](CC(=O)O)NC(=O)[C@@H]2CCCN2C1=O [compound 319] (H-DCLGFMRKCIPDNDKCCRPNLFCSRTHKWCKYVF-NH2; disulfide 2-17, 9-23, 16-30)	700	–	1020	> 5	–
CC[C@H](C)[C@@H]1NC(=O)[C@@H]2CSSC[C@@H]3NC(=O)[C@@H]4CCCN4C(=O)[C@H](CC(C)C)NC(=O)[C@H](CC(N)=O)NC(=O)[C@@H]4CCCN4C(=O)[C@H](CCCNC(=N)N)NC(=O)[C@H](CSSC[C@H](NC(=O)[C@@H](N)CC(=O)O)C(=O)N[C@@H](CC(C)C)C(=O)NCC(=O)N[C@@H](Cc4ccccc4)C(=O)N[C@@H](CCSC)C(=O)N[C@@H](CCCNC(=N)N)C(=O)N[C@@H](CCCCN)C(=O)N2)NC(=O)[C@H](CSSC[C@@H](C(=O)N[C@@H](CCCCN)C(=O)N[C@@H](Cc2ccc(O)cc2)C(=O)N[C@H](C(=O)N[C@@H](Cc2ccccc2)C(N)=O)C(C)C)NC(=O)[C@H](Cc2c[nH]c4ccccc24)NC(=O)[C@H](CCCCN)NC(=O)[C@H](Cc2c[nH]cn2)NC(=O)[C@H]([C@@H](C)O)NC(=O)[C@H](CCCNC(=N)N)NC(=O)[C@H](CO)NC3=O)NC(=O)[C@H](CCCCN)NC(=O)[C@H](CC(=O)O)NC(=O)[C@H](CC(N)=O)NC(=O)[C@H](CC(=O)O)NC(=O)[C@@H]2CCCN2C1=O [compound 320] (H-DCLGFMRKCIPDNDKCCRPNLPCSRTHKWCKYVF-NH2; disulfide 2-17, 9-23, 16-30)	> 5000	> 5	> 5000	–	–
